Consider 1 compound from ChEMBL document CHEMBL3217509, “Discovery of an HIV integrase inhibitor with an excellent resistance profile” (Medchemcomm, 2013).

Data set [1] relates to Human immunodeficiency virus 1. As to the kind of experiment: Resistance ratio of IC50 for MLV pseudotyped HIV1 NL4-3 expressing integrase E92Q/N155H mutant to IC50 for MLV pseudotyped HIV1 NL4-3 expressing wild type integrase. In kind it is functional.
The test system of data set [2] is Human immunodeficiency virus 1. Briefly: Resistance ratio of IC50 for MLV pseudotyped HIV1 NL4-3 expressing integrase E92Q mutant to IC50 for MLV pseudotyped HIV1 NL4-3 expressing wild type integrase. In kind it is functional.
Data set [3] relates to Human immunodeficiency virus 1. Briefly: Resistance ratio of IC50 for MLV pseudotyped HIV1 NL4-3 expressing integrase T97A mutant to IC50 for MLV pseudotyped HIV1 NL4-3 expressing wild type integrase. The format is functional.
Data set [4] relates to Human immunodeficiency virus 1. Briefly: Antiviral activity against HIV1 UG92037 infected in human PBMC after 5 days by human JC53BL cell-based beta-galactosidase reporter gene assay. In kind it is functional, organism-based. Particulars: Human immunodeficiency virus 1, UG92037, JC53BL, 120 h.
Data set [5] deals with Human immunodeficiency virus 1. As to the kind of experiment: Antiviral activity against HIV1 SF162 infected in human PBMC after 5 days by human JC53BL cell-based beta-galactosidase reporter gene assay. In kind it is functional, organism-based. Particulars: Human immunodeficiency virus 1, SF162, JC53BL, 120 h.
A short description of data set [6]: Cytotoxicity against human MT2 cells after 3 days by CellTitre-Glo assay. In kind it is cell-based.
Data set [7] can be described thus: Intrinsic clearance in human liver microsomes assessed per mg of protein by LC-MS/MS analysis. Particulars: read-out: CLH. In kind it is ADME.
A short description of data set [8]: Drug metabolism in iv dosed dog urine. Particulars: in vivo. The format is ADME, organism-based, Canis lupus familiaris.
A short description of data set [9]: Clearance in healthy human at 100 ug, iv. The format is ADME, organism-based. Particulars: in vivo.
The subject of the next data set is Canis familiaris. As to the kind of experiment: Clearance in dog at 0.1 mg/kg, iv. The format is ADME, organism-based, Canis lupus familiaris. The arrangement: dose 0.1 mg/kg, route intravenous. Particulars: in vivo.
Data set [10] can be described thus: Oral bioavailability in rat at 2 mg/kg. The format is ADME, organism-based. Particulars: in vivo.
Data set [11] is described as follows: Plasma protein binding in human. In kind it is ADME, cell-free. Particulars: read-out: PPB (converted).
Data set [12] in a line: Clearance in rat liver microsomes assessed per mg of protein. The format is ADME. Particulars: read-out: CLH.
Data set [13] relates to Human immunodeficiency virus 1. Briefly: Resistance ratio of IC50 for MLV pseudotyped HIV1 NL4-3 expressing integrase G140S/Q148h mutant to IC50 for MLV pseudotyped HIV1 NL4-3 expressing wild type integrase. In kind it is functional.
The test system of data set [14] is Human immunodeficiency virus 1. Briefly: Inhibition of MLV pseudotyped HIV1 NL4-3 expressing integrase G140S/Q148K mutant. In kind it is functional, organism-based.
Data set [15] has as its system Human immunodeficiency virus 1. Briefly: Resistance ratio of IC50 for MLV pseudotyped HIV1 NL4-3 expressing integrase Q148H mutant to IC50 for MLV pseudotyped HIV1 NL4-3 expressing wild type integrase. In kind it is functional.
Data set [16] concerns Human immunodeficiency virus 1. As to the kind of experiment: Resistance ratio of IC50 for MLV pseudotyped HIV1 NL4-3 expressing integrase G140A mutant to IC50 for MLV pseudotyped HIV1 NL4-3 expressing wild type integrase. In kind it is functional.

Calls of active or inactive are those of the source. The rule behind the calls is not given here.

Consider `COc1cc(F)ccc1Cn1ccc2c3c(ncc21)C(=O)N(O)CC3` [PF-04776548], for which the “Ratio IC50” value in data set [1], in data set [2], in [3], in data set [13], in [15] and in [16] was <10 in each case. The EC50 is 0.84 nM in [4] and 1.68 nM in data set [5]. In addition, the midpoint of cytotoxicity in data set [6], the CC50 at 72 h, lay at 7360 nM. Further, the results for the microsomal CLint in data set [7] and in data set [12] were 8.3 µL/min/mg and 26 µL/min/mg, respectively. For the same compound, the Drug metabolism result in data set [8] is “Active”. Also, the clearance in [9] was determined as 18 mL/min/kg; in the data set with Canis familiaris it was 24 mL/min/kg. The same compound registered a bioavailability in data set [10] of 1%. In [11], the fraction unbound was 0.08. For the same compound, the inhibition entry in [14] was “inactive”.
